In patent publication US20040006142A1, “Ocular tension depressor” (priority 2002, published 2004):

Assay: Ocular tension (IOP) lowering in rabbits after eye drop, Tonopen XL tonometer
Assay type: in vivo, Rabbits (New Zealand albino)
Settings: eye drop of 0.5% preparation, 50 μL; for AUC0-8 hr Δ IOP % mean ± S.D.: IOP before, 2.5 h and 8 h after treatment, trapezoidal rule, change relative to pre-treatment; for ocular tension compared with the control group: p < 0.05 vs medium control
Method: Rabbits (New Zealand albino, body weight: 2.0 to 2.5 kg) having ocular tension of 15 mmHg before treated were used in this experiment. Experimental group of the rabbits were treated with an eye drop of the preparation of a 0.5% concentration of the compounds A and B with a dosage of 50 μL at a time. Control group of the rabbits were treated with an eye drop of a medium (ophthalmic solutions containing 0.40% of NaH2PO4, 0.47% of NaHPO4, 0.47% of NaCl, and 1.0% of polysorbate 80 with pH 6.8) with the same dosage as in the experimental group at a time. The ocular tension of the experimental group and the control group was measured with a Tonopen™ XL tonometer before treatment, 2.5 hours, and 8 hours after treatment.
Next, a ratio of ocular tension change relative to ocular tension measured before treatment (Δ IOP %) was calculated, and an area (AUC0-8hr Δ IOP %) defined by the area under the curve obtained by plotting out Δ IOP % with respect to the horizontal axis representing lapse of time was calculated in accordance with a method of trapezoidal rule.

Structure (SMILES) | AUC0-8 hr Δ IOP % mean ± S.D. | ocular tension compared with the control group
COc1cc(C(=O)N(C)c2ccc(C)cc2OCCCCCC(=O)N2CCN(C)CC2)ccc1NC(=O)c1ccccc1OCCCN [Compound A, 4-[2-(3-aminopropyl-1-yl)oxy]benzoylamino-3-methoxy-N-methyl-N-{4-methyl-2-[5-(4-methylpiperazin-1-yl)carbonylpent-1-yloxy]phenyl}benzamide] | −147.0 ± 89.0 % | significantly lowered
Cc1ccc(-c2ccccc2C(=O)Nc2ccc(C(=O)N3CCC(=O)N(CC(=O)N4CCN(C)CC4)c4ccccc43)cc2)cc1 [Compound B, 5-{4-[2-(4-methylphenyl)benzoylamino]benzoyl}-1-[(4-methyl-1-piperazinyl)carbonylmethyl]-1,3,4,5-tetrahydro-1,5-benzodi azepin-2(2H)-one] | −145.8 ± 87.7 % | significantly lowered
